Measurements as given in patent US20230286969A1, “AROMATIC SPIRO RING AMIDE DERIVATIVES FOR THE TREATMENT AND PROPHYLAXIS OF HEPATITIS B VIRUS INFECTION” (Hoffmann-La Roche Inc., priority 2020, published 2023).
Where two headings read alike, the source gives them in different places.

Assays:
Assay type in all cases: cell-based
HBsAg = experiment: PHH HBV natural infection assay, HBsAg (alphalisa)
Summary of the method: (§1)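 Primary human hepatocytes infected with HBV at 200 GE/cell plus 4% PEG8000 for 24 h, then sandwich-cultured 72 h. Compounds were added in two refreshes 72 h apart. HBsAg and HBeAg in supernatant measured by AlphaLISA.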

HBeAg = experiment: PHH HBV natural infection assay, HBeAg (alphalisa)
Summary of the method: as §1

[1] = system: primary human hepatocyte (PHH); experiment: PHH natural infection assay, cytotoxicity (Cell Counting Kit-8); settings: HBV-infected primary human hepatocytes, CCK8, end of treatment
Summary of the method: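 HBV-infected at 200 GE/cell with 4% PEG8000 for 24 h, then sandwich-cultured 72 h in 1% DMSO and 0.25 mg/mL matrix gel. Compound added twice at 72-h intervals; supernatant HBsAg and HBeAg read by AlphaLISA, HBV DNA by quantitative fluorescence PCR kit. Cytotoxicity by CCK-8.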

[2] = read-out: HBsAg IC50; HBV-infected primary human hepatocytes, supernatant, compound medium refreshed two times with 72-hour interval
[3] = read-out: HbeAg IC50; HBV-infected primary human hepatocytes, supernatant, compound medium refreshed two times with 72-hour interval

| SMILES | IC50 (HBsAg; [2]) [nM] | IC50 (HBeAg; [3]) [nM] | CC50 [1] [nM] | IC50 (HBsAg; HBV-infected primary human hepatocytes, supernatant, compound medium refreshed two times with 72-hour interval; read-out: HBsAg IC50) [nM] | IC50 (HBeAg; HBV-infected primary human hepatocytes, supernatant, compound medium refreshed two times with 72-hour interval; read-out: HbeAg IC50) [nM] |
| --- | --- | --- | --- | --- | --- |
| N=S(=O)(c1ccc(C(=O)NC2CC3(C2)CC(c2nc4cc(Cl)cnc4o2)C3)o1)C1CC1 (single isomer, unassigned) [Example 64-b, N-[6-(6-chlorooxazolo[5,4-b]pyridin-2-yl)spiro[3.3]heptan-2-yl]-5-(cyclopropylsulfonimidoyl)furan-2-carboxamide] | 9460 | 9130 | > 10000 |  |  |
| O=C(NC1CC2(C1)CC(c1nc3cc(Cl)ccc3o1)C2)c1ccc([S+]([O-])CC2CC2)o1 (single isomer, unassigned) [Example 19-c, N-[6-(5-chloro-1,3-benzoxazol-2-yl)spiro[3.3]heptan-2-yl]-5-(cyclopropylmethylsulfinyl)furan-2-carboxamide] | 2420 | 1950 | > 10000 |  |  |
| N=S(=O)(c1ccc(C(=O)NC2CC3(C2)CC(c2nc4cc(Cl)ccc4o2)C3)o1)C1CC1 (single isomer, unassigned) [Example 53-a, N-[6-(5-chloro-1,3-benzoxazol-2-yl)spiro[3.3]heptan-2-yl]-5-(cyclopropylsulfonimidoyl)furan-2-carboxamide] | 1890 | 1270 | > 10000 |  |  |
| CS(=N)(=O)c1ccc(C(=O)NC2CC3(C2)CC(c2nc4cc(Cl)ccc4o2)C3)o1 (single isomer, unassigned) [Example 52-b, N-[6-(5-chloro-1,3-benzoxazol-2-yl)spiro[3.3]heptan-2-yl]-5-(methylsulfonimidoyl)furan-2-carboxamide] | 939 | 898 | > 100000 |  |  |
| CCC(=O)NS(=O)(=O)c1ccc(C(=O)NC2CC3(C2)CC(c2nc4cc(Cl)ccc4o2)C3)o1 (stereo not drawn) [Example 68, (Sa)—N-[6-(5-chloro-1,3-benzoxazol-2-yl)spiro[3.3]heptan-2-yl]-5-(propanoylsulfamoyl)furan-2-carboxamide, or (Ra)—N-[6-(5-chloro-1,3-benzoxazol-2-yl)spiro[3.3]heptan-2-yl]-5-(propanoylsulfamoyl)furan-2-carboxamide] |  |  | > 100000 | 626 | 371 |
| O=C(NC1CC2(C1)CC(c1nc3cc(Cl)cnc3o1)C2)c1ccc(S(=O)(=O)C2CC2)o1 (single isomer, unassigned) [Example 49-b, N-[6-(6-chlorooxazolo[5,4-b]pyridin-2-yl)spiro[3.3]heptan-2-yl]-5-cyclopropylsulfonyl-furan-2-carboxamide] | 647 | 626 | 91500 |  |  |
| N=S(=O)(CC1CC1)c1ccc(C(=O)NC2CC3(C2)CC(c2nc4cc(Cl)ccc4o2)C3)o1 (single isomer, unassigned) [Example 54-b, N-[6-(5-chloro-1,3-benzoxazol-2-yl)spiro[3.3]heptan-2-yl]-5-(cyclopropylmethylsulfonimidoyl)furan-2-carboxamide] | 285 | 166 | > 100000 |  |  |
| N=S(=O)(CC1CC1)c1ccc(C(=O)NC2CC3(C2)CC(c2nc4cc(Cl)ccc4o2)C3)o1 (single isomer, unassigned) [Example 54-c, N-[6-(5-chloro-1,3-benzoxazol-2-yl)spiro[3.3]heptan-2-yl]-5-(cyclopropylmethylsulfonimidoyl)furan-2-carboxamide] | 5840 | 4590 | > 10000 |  |  |
| NS(=O)(=O)c1ccc(C(=O)NC2CC3(C2)CC(c2nc4cc(Cl)ccc4o2)C3)o1 (single isomer, unassigned) [Example 29-b, N-[6-(5-chloro-1,3-benzoxazol-2-yl)spiro[3.3]heptan-2-yl]-5-sulfamoyl-furan-2-carboxamide] | 1550 | 909 | > 100000 |  |  |
| O=C(NC1CC2(C1)CC(c1nc3cc(Cl)ccc3o1)C2)c1ccc([S+]([O-])CC2CC2)o1 (single isomer, unassigned) [Example 19-b, N-[6-(5-chloro-1,3-benzoxazol-2-yl)spiro[3.3]heptan-2-yl]-5-(cyclopropylmethylsulfinyl)furan-2-carboxamide] | 71 | 53 | > 10000 |  |  |
| O=C(NC1CC2(C1)CC(c1nc3cc(Cl)ccc3o1)C2)c1ccc([S+]([O-])CC2CC2)o1 (single isomer, unassigned) [Example 19-d, N-[6-(5-chloro-1,3-benzoxazol-2-yl)spiro[3.3]heptan-2-yl]-5-(cyclopropylmethylsulfinyl)furan-2-carboxamide] | 2860 | 2500 | > 10000 |  |  |
| N=S(=O)(c1ccc(C(=O)NC2CC3(C2)CC(c2nc4cc(Cl)ccc4o2)C3)o1)C1CC1 (single isomer, unassigned) [Example 53-d, N-[6-(5-chloro-1,3-benzoxazol-2-yl)spiro[3.3]heptan-2-yl]-5-(cyclopropylsulfonimidoyl)furan-2-carboxamide] | 1120 | 1340 | 92800 |  |  |
| CS(=N)(=O)c1ccc(C(=O)NC2CC3(C2)CC(c2nc4cc(Cl)ccc4o2)C3)o1 (single isomer, unassigned) [Example 52-c, N-[6-(5-chloro-1,3-benzoxazol-2-yl)spiro[3.3]heptan-2-yl]-5-(methylsulfonimidoyl)furan-2-carboxamide] | 5040 | 3610 | > 100000 |  |  |
| N=S(=O)(c1ccc(C(=O)NC2CC3(C2)CC(c2nc4cc(Cl)ccc4o2)C3)o1)C1CC1 (single isomer, unassigned) [Example 53-b, N-[6-(5-chloro-1,3-benzoxazol-2-yl)spiro[3.3]heptan-2-yl]-5-(cyclopropylsulfonimidoyl)furan-2-carboxamide] | 6830 | 4650 | > 10000 |  |  |
| N=S(=O)(CC1CC1)c1ccc(C(=O)NC2CC3(C2)CC(c2nc4cc(Cl)ccc4o2)C3)o1 (single isomer, unassigned) [Example 54-d, N-[6-(5-chloro-1,3-benzoxazol-2-yl)spiro[3.3]heptan-2-yl]-5-(cyclopropylmethylsulfonimidoyl)furan-2-carboxamide] | 703 | 694 | > 10000 |  |  |
